Tests used:
human Kv1.5 = molecular target: T1, human Kv1.5 (Homo sapiens, UniProt P22460); test: 86Rb efflux assay; assay type: cell-based; settings: inhibition of 86Rb efflux through Kv1.5 potassium channels expressed in CHO cells; 70 mM KCl depolarization; read-out: IC50 (μM) (flux)
T1 construct: expressed in transfected cells
Experimental: Cells stably transfected with cDNA for human Kv1.5 (in pcDNA3 vector) were grown as confluent monolayers in 96 well tissue culture plates in MEM alpha with 10% heat inactivated fetal bovine serum and 400 μg/ml G418. Cells were incubated overnight in growth media containing 1 μCi/ml ^86Rb to permit intracellular uptake of the isotope. At the end of the incubation period, the ^86Rb solution is aspirated and the cells washed three times with Earls Balanced Salt Solution (EBSS) which contains (in mM) 132 NaCl, 5.4 KCl, 1.8 CaCl2, 0.8 mM MgCl2 10 mM HEPES and 5 mM glucose. The cells were then preincubated for 10 minutes at room temperature in 100 μl/well of EBSS or EBSS containing test compounds. At the end of this period the wells were aspirated and to each well is then added 100 μl of a modified EBSS solution containing 70 mM KCl (NaCl replaced by KCl) and the compound to be tested. The high KCl concentration is utilized to depolarize the cells to membrane potentials that will activate Kv1.5 channels. After a 1 minute incubation in 70 mM KCl EBSS plus test compound, the solution is removed and placed into the appropriate well of a 96 well counting plate for analysis. Finally 100 μl of 0.1% sodium dodecyl sulfate in EBSS is added to each well to lyse the cells. The lysate is taken for analysis to determine final cell content of ^86Rb. Samples were counted in a Wallac Microbeta liquid scintillation counter by Cerenkov emission. Efflux is expressed as a percentage of the initial cell content of ^86Rb.
The testing results of selective compounds from Tables 1 and 2 using this assay are reported in Table 3 (flux) as the potency for inhibition of ^86Rb efflux through Kv1.5 potassium channels expressed in CHO cells by compounds of the invention.

[1] = molecular target: Kv1.5 potassium channel subunit (Homo sapiens, UniProt P22460); test: Electrophysiological studies (whole cell patch clamp); assay type: cell-based; settings: inhibition of Kv1.5 potassium currents, Chinese hamster ovary cells stably expressing Kv1.5
Sequence of Kv1.5 potassium channel subunit (P22460 whole entry): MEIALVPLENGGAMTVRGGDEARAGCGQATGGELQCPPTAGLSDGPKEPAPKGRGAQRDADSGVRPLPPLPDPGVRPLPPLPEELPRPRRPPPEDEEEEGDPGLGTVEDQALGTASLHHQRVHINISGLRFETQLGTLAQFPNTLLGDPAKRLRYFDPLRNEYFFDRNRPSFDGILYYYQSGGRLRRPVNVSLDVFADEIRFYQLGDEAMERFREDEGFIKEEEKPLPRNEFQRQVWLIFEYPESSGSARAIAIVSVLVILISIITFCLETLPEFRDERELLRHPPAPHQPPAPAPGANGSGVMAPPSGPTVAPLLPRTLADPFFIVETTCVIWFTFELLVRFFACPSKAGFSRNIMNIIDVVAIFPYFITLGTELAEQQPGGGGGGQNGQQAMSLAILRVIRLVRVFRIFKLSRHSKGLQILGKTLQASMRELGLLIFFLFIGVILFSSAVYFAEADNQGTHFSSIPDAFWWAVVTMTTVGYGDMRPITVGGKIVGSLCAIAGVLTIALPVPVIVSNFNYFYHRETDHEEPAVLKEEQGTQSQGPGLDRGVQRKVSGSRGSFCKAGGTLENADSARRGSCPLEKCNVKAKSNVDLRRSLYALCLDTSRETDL
Experimental: Electrophysiological recordings of potassium currents in Chinese hamster ovary cells stably expressing the gene construct for the Kv1.5 potassium channel subunit were performed using the whole cell configuration of the patch clamp technique (Hamill et al., Pflugers Archiv 391:85, 1981). Cell lines expressing Kv1.5 were prepared using standard techniques known to those skilled in the art. Cells were plated on glass coverslips at a density of 2×10^4 cells/coverslip and used within 24-48 hours. Solutions used for electrophysiological recordings were as follows. Extracellular bathing solutions contained (in mM) 132 NaCl, 5.4 KCl, 1.8 CaCl2, 0.8 MgCl2, 10 HEPES, 5 glucose at pH 7.3. Electrode pipette solutions for measuring Kv1.5 contain (in mM) 100 KF, 40 KCl, 5 NaCl, 2 MgCl2, 5 mM EGTA, 10 mM HEPES and 5 glucose at pH 7.4, 295 mOsm. The coverslips were placed in a small chamber (volume ˜200 μl) on the mechanical stage of an inverted microscope and […] (2 ml/min) with extracellular recording solution. Drug application is achieved via a series of narrow-bore glass capillary tubes (inner diameter ˜100 μm) positioned approximately 200 μm from the cell.
The testing results of selective compounds from Tables 1 and 2 using this assay are reported in Table 3 (EP) as the potency for inhibition of Kv1.5 potassium currents by compounds of the invention.

T1 sequence (P22460 whole entry): as above

Row | IC50 (human Kv1.5) | IC50 [1] | SMILES
1 | 3.9 µM | 0.6 µM | COc1ccc(CCN2C(=O)CSC2c2cccc(OC)c2)cc1 (centres unmarked) [1 of Table 1]
2 | 1.5 µM | 0.3 µM | COc1ccc(CCN2C(=O)CCSC2c2ccc(C)c(C)c2)cc1 (centres unmarked) [2 of Table 2]
3 | 29.6 µM | 6 µM | COc1ccc(CCN2C(=O)CSC2c2ccc(OC)c(OC)c2)cc1 (centres unmarked) [5 of Table 1]
4 | 9.9 µM | 1.2 µM | COc1cccc(CCN2C(=O)CSC2c2ccc3c(c2)OCO3)c1 (centres unmarked) [8 of Table 1]
5 | 1.5 µM | 1 µM | COc1ccc(CCN2C(=O)CCSC2c2ccc3c(c2)OCO3)cc1 (centres unmarked) [18 of Table 2]
6 | 14.5 µM | – | COc1ccc(CCN2C(=O)CSC2c2ccc(F)c(F)c2)cc1 (centres unmarked) [23 of Table 1]
7 | 30 µM | 4.7 µM | COc1ccc(CN2C(=O)CSC2c2cccc(OC)c2)cc1 (centres unmarked) [36 of Table 1]
8 | – | 0.6 µM | COc1ccc(CCN2C(=O)C(C)SC2c2ccc3c(c2)OCCO3)cc1 (centres unmarked) [45 of Table 1]
9 | 0.9 µM | 0.2 µM | COc1ccc(CCN2C(=O)CSC2c2ccc(C)c(C)c2)cc1 (centres unmarked) [52 of Table 1]
10 | 6.9 µM | 0.3 µM | Cc1ccc(C2SCC(=O)N2CCCCc2ccccc2)cc1C (centres unmarked) [60 of Table 1]
11 | 1.3 µM | 0.7 µM | CCc1ccc(C2SCC(=O)N2CCc2ccc(OC)cc2)s1 (centres unmarked) [67 of Table 1]
12 | 10.5 µM | 1.6 µM | CCCCCCN1C(=O)CSC1c1cccc(OC)c1 (centres unmarked) [77 of Table 1]
13 | 4.7 µM | – | Cc1ccc(C2SCC(=O)N2CC#Cc2ccccc2)cc1C (centres unmarked) [82 of Table 1]

Source: patent US6395730B1, “Potassium channel inhibitors” (Icagen, Inc., priority 1998, dated 2002)
